Where two headings read alike, the source gives them in different places.
Experiments:
[1] = MR contrast enhancement of kidney in rabbits (T1W spin echo, 1.5 Tesla); format: in vivo, New Zealand White rabbits; settings: 0.1 mM/kg intravenously; for time at which contrast enhancement of kidney was well demonstrated: after contrast injection
Description: (§1) TR=750 msec. TE=37 msec. NEX=4. Flow compensation was used.

[2] = MR contrast enhancement of muscle in rabbits (T1W spin echo, 1.5 Tesla); format: in vivo, New Zealand White rabbits; settings: 0.1 mM/kg intravenously
Description: as §1

[3] = for time at which contrast enhancement of liver was well demonstrated: after contrast injection
Description: New Zealand White rabbits were used for all magnetic resonance imaging (MRI) experiments. A General Electric 1.5 Tesla system was used with the knee coil. T1W spin echo images were obtained every 10 minutes following contrast injection. Data points were taken as the time at the end of the scan. Each data point was measured in triplicate with sample signal intensities taken from the liver, kidney, and muscle. TR=750 msec. TE=37 msec. NEX=4. Flow compensation was used. Sedation was performed by using an initial injection of intramuscular ketamine at 110 mg/kg and pentobarbital intravenously at 2.2 cc/kg. Sedation was maintained with intermittent pentobarbital injections as needed at 1 cc/kg.
Two rabbits were given gadolinium DTPA bis-glucosamide at 0.1 mM/kg intravenously. MR images were taken before and after the injection of the contrast agent.
MR images were taken before and after the injection of contrast agent.
Gadolinium DTPA bis-pyriodoxamide was given intravenously at 0.1 mM/kg. MR images were taken before and after the injection of contrast agent.
Comparison is made with two animals which were given Gd DTPA (Schering A. G., Berlin, Germany) 0.1 mM/kg intravenously.

[4] = 11 min. P.I., 0.1 mM/kg intravenously
[5] = 21 min. P.I., 0.1 mM/kg intravenously
[6] = 31 min. P.I., 0.1 mM/kg intravenously
[7] = 44 min. P.I., 0.1 mM/kg intravenously
[8] = 54 min. P.I., 0.1 mM/kg intravenously
[9] = 64 min. P.I., 0.1 mM/kg intravenously
[10] = 76 min. P.I., 0.1 mM/kg intravenously
[11] = Pre-Contrast, 0.1 mM/kg intravenously
[12] = 85 min. P.I., 0.1 mM/kg intravenously

| Compound | time at which contrast enhancement of kidney was well demonstrated [1] [min] | contrast enhancement, kidney composite (av of 3) ([1]; 11 min. P.I.) [%] | contrast enhancement, kidney composite (av of 3) ([1]; 21 min. P.I.) [%] | contrast enhancement, kidney composite (av of 3) ([1]; 31 min. P.I.) [%] | contrast enhancement, kidney composite (av of 3) ([1]; 44 min. P.I.) [%] | contrast enhancement, kidney composite (av of 3) ([1]; 54 min. P.I.) [%] | contrast enhancement, kidney composite (av of 3) ([1]; 64 min. P.I.) [%] | contrast enhancement, kidney composite (av of 3) ([1]; 76 min. P.I.) [%] | contrast enhancement, kidney composite (av of 3) ([1]; Pre-Contrast) [%] | contrast enhancement, muscle composite (av of 3) ([2]; 11 min. P.I.) [%] | contrast enhancement, muscle composite (av of 3) ([2]; 21 min. P.I.) [%] | contrast enhancement, muscle composite (av of 3) ([2]; 31 min. P.I.) [%] | contrast enhancement, muscle composite (av of 3) ([2]; 44 min. P.I.) [%] | contrast enhancement, muscle composite (av of 3) ([2]; 54 min. P.I.) [%] | contrast enhancement, muscle composite (av of 3) ([2]; 64 min. P.I.) [%] | contrast enhancement, muscle composite (av of 3) ([2]; Pre-Contrast) [%] | contrast enhancement, liver composite (av of 3) [3, 4] [%] | contrast enhancement, liver composite (av of 3) [3, 5] [%] | contrast enhancement, liver composite (av of 3) [3, 6] [%] | contrast enhancement, liver composite (av of 3) [3, 11] [%] | other results |
| --- | --- | --- | --- | --- | --- | --- | --- | --- | --- | --- | --- | --- | --- | --- | --- | --- | --- | --- | --- | --- | --- |
| O=C([O-])CN(CCN(CC(=O)[O-])CC(=O)N[C@H]1C(O)O[C@H](CO)[C@@H](O)[C@@H]1O)CCN(CC(=O)[O-])CC(=O)N[C@H]1C(O)O[C@H](CO)[C@@H](O)[C@@H]1O.[Gd+3] (stereo partly shown) [Gd DTPA Bis-Glucosamide, gadolinium DTPA bis-glucosamide] | 11 | 77.532 | 68.552 | 46.320 | 42.172 | 31.288 | 30.596 | 22.065 | 0.000 | 3.791 | -3.481 | -2.205 | -6.098 | -7.962 | -11.035 | 0.000 | 17.157 | 14.172 | 11.053 | 0.000 | course of contrast enhancement after maximum, kidney [1]: decreased gradually; enhancement of the kidney compared to Gd DTPA [1]: improved enhancement; time until which maximum contrast enhancement was maintained, kidney [1]: 22 min; contrast enhancement, muscle composite (av of 3) ([2]; 76 min. P.I.): -5.465%; course of contrast enhancement after maximum, liver ([3]; 0.1 mM/kg intravenously): decreased gradually; decrease in contrast, liver versus kidney ([3]; 0.1 mM/kg intravenously): slower in the liver than in the kidney; enhancement of the liver compared to Gd DTPA ([3]; 0.1 mM/kg intravenously): improved enhancement; time until which maximum contrast enhancement was maintained, liver ([3]; 0.1 mM/kg intravenously): 22 min; time at which contrast enhancement of liver was well demonstrated ([3]; 0.1 mM/kg intravenously): 11 min; contrast enhancement, liver composite (av of 3) [3, 7]: 7.390%; contrast enhancement, liver composite (av of 3) [3, 8]: 9.910%; contrast enhancement, liver composite (av of 3) [3, 9]: 3.151%; contrast enhancement, liver composite (av of 3) [3, 10]: 1.750% |
| Cc1ncc(CO)c(CNC(=O)CN(CCN(CCN(CC(=O)[O-])CC(=O)NCc2c(CO)cnc(C)c2O)CC(=O)[O-])CC(=O)[O-])c1O.[Gd+3] [Gd DTPA Bis-Pyridoxamide, Gadolinium DTPA bis-pyriodoxamide] | 11 | 72.341 | 50.381 | 53.753 |  |  |  |  | 0.000 | 7.089 | 6.846 | -12.884 |  |  |  | 0.000 | -4.567 | -4.805 | -3.018 | 0.000 | enhancement of the kidney compared to Gd DTPA [1]: improved renal enhancement; time of maximum contrast enhancement, kidney [1]: 11 min; liver enhancement (in words) ([3]; 0.1 mM/kg intravenously): negative liver enhancement |
| O=C([O-])CN(CCN(CC(=O)[O-])CC(=O)N[C@H]1C(O)O[C@H](CO)[C@H](O)[C@@H]1O)CCN(CC(=O)[O-])CC(=O)N[C@H]1C(O)O[C@H](CO)[C@H](O)[C@@H]1O.[Gd+3] (stereo partly shown) [Gd DTPA Galactosamide, gadolinium DTPA galactosamide] | 11 | 52.932 | 47.999 | 46.968 | 41.697 | 41.936 | 42.336 | 37.335 | 0.000 | 18.349 | 24.593 | 12.578 | 7.783 | 14.531 | 12.252 | 0.000 | 21.943 | 13.116 | 15.632 | 0.000 | course of contrast enhancement after maximum, kidney [1]: decreased very slowly; time of maximum contrast enhancement, kidney [1]: 22 min; contrast enhancement, kidney composite (av of 3) ([1]; 85 min. P.I.): 26.562%; enhancement of the muscle compared to Gd DTPA [2]: improved enhancement; contrast enhancement, muscle composite (av of 3) ([2]; 76 min. P.I.): -10.121%; contrast enhancement, muscle composite (av of 3) ([2]; 85 min. P.I.): -3.078%; course of contrast enhancement after maximum, liver ([3]; 0.1 mM/kg intravenously): decreased rapidly; enhancement of the liver compared to Gd DTPA ([3]; 0.1 mM/kg intravenously): improved enhancement; time of maximum contrast enhancement, liver ([3]; 0.1 mM/kg intravenously): 11 min; time at which contrast enhancement of liver was well demonstrated ([3]; 0.1 mM/kg intravenously): 11 min; contrast enhancement, liver composite (av of 3) [3, 7]: 11.724%; contrast enhancement, liver composite (av of 3) [3, 8]: 13.202%; contrast enhancement, liver composite (av of 3) [3, 9]: 8.360%; contrast enhancement, liver composite (av of 3) [3, 10]: 11.639%; contrast enhancement, liver composite (av of 3) [3, 12]: 15.451%; time at which contrast agent appears to have been cleared from the liver ([3]; rabbit, in vivo, iv): 76 min |
| O=C([O-])CN(CCN(CC(=O)[O-])CC(=O)[O-])CCN(CC(=O)[O-])CC(=O)[O-].[Gd+3] [Gd DTPA, gadolinium diethylene triamine pentaacetic acid complex, reference compound] |  | 52.456 | 40.275 | 28.971 | 29.243 | 28.405 | 27.052 | 23.751 | 0.000 | 12.981 | 6.801 | 2.020 | -1.543 | -0.464 | -0.873 | 0.000 | 4.822 | 0.852 | 6.132 | 0.000 | contrast enhancement, kidney composite (av of 3) ([1]; 85 min. P.I.): 14.643%; contrast enhancement, muscle composite (av of 3) ([2]; 76 min. P.I.): -2.407%; contrast enhancement, muscle composite (av of 3) ([2]; 85 min. P.I.): -0.899%; contrast enhancement, liver composite (av of 3) [3, 7]: -2.041%; contrast enhancement, liver composite (av of 3) [3, 8]: -2.714%; contrast enhancement, liver composite (av of 3) [3, 9]: -1.063%; contrast enhancement, liver composite (av of 3) [3, 10]: -0.232%; contrast enhancement, liver composite (av of 3) [3, 12]: -0.422% |

Reference: patent publication US5330743A, “Aminosaccharide contrast agents for magnetic resonance images” (Magnetic Research, Inc., priority 1992, dated 1994)
